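Tested at 5 concentrations; 48 h exposure; 96-well plates; endpoints linearly interpolated, else capped at highest concentration. Here, GI50 denotes the concentration required for 50% inhibition of growth.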 Active and inactive are the calls of the source. No stated cut-off is given here; in the data, active = GI50 up to about 1.1 µM and inactive = higher.
Experiments:
Assay in all cases: growth of human tumour cells (NCI), 48 h
[1] = tested on: A549
[2] = tested on: ACHN
[3] = tested on: CCRF-CEM
[4] = tested on: COLO 205
[5] = tested on: HL-60
[6] = tested on: KM12
[7] = tested on: MOLT-4
[8] = tested on: NCI-H226
[9] = tested on: NCI-H23
[10] = tested on: NCI-H522
[11] = tested on: SK-MEL-28
[12] = tested on: SK-MEL-2
[13] = tested on: SK-MEL-5
[14] = tested on: SNB-75
[15] = tested on: U-251
[16] = tested on: UACC-257
[17] = tested on: LOX IMVI
[18] = tested on: SN12C

Measured: GI50

CC(=O)Nc1cc(N(CCOS(C)(=O)=O)CCOS(C)(=O)=O)ccc1N=O
inactive: [1] > 100 µM | [2] > 100 µM | [3] > 100 µM | [4] > 100 µM | [5] > 100 µM | [6] > 100 µM | [7] > 100 µM | [8] > 100 µM | [9] > 100 µM | [10] > 100 µM | [11] > 100 µM | [12] > 100 µM | [13] > 100 µM | [14] > 100 µM | [15] > 100 µM | [16] > 100 µM

Cc1cc2c(c(C(N)=O)c1C)-c1ccccc1C2=O
inactive: [1] > 100 µM | [2] > 100 µM | [3] > 100 µM | [4] > 100 µM | [5] > 100 µM | [6] 2.42 µM | [17] > 100 µM | [7] > 100 µM | [9] > 100 µM | [10] > 100 µM | [11] > 100 µM | [12] > 100 µM | [18] > 100 µM | [14] 83.2 µM | [15] > 100 µM | [16] > 100 µM

CCc1cc(CCC(=O)Nc2ccccc2[N+](=O)[O-])nc(S)n1
inactive: [1] > 100 µM | [2] > 100 µM | [3] > 100 µM | [4] > 100 µM | [5] > 100 µM | [6] > 100 µM | [17] > 100 µM | [7] > 100 µM | [8] > 100 µM | [9] > 100 µM | [11] > 100 µM | [12] > 100 µM | [15] > 100 µM | [16] > 100 µM

OCCCOC(c1ccccc1)(c1ccccc1)c1ccccc1
inactive: [1] > 100 µM | [2] > 100 µM | [3] > 100 µM | [4] > 100 µM | [5] > 100 µM | [6] > 100 µM | [17] 35.6 µM | [7] 93.3 µM | [9] 75.7 µM | [10] > 100 µM | [11] > 100 µM | [13] > 100 µM | [18] > 100 µM | [14] 20.1 µM | [15] 51.5 µM | [16] > 100 µM

CC(O)CN1C(=O)NC(Cc2ccccc2)C1=O (stereo unspecified)
inactive: [1] > 100 µM | [2] > 100 µM | [4] > 100 µM | [5] > 100 µM | [6] > 100 µM | [17] > 100 µM | [8] > 100 µM | [9] > 100 µM | [10] > 100 µM | [11] > 100 µM | [12] > 100 µM | [18] > 100 µM | [14] > 100 µM | [15] > 100 µM | [16] > 100 µM

CCOC(=O)C(C)(NC(=O)c1ccc(NCc2ccc3nc(NC(=O)c4ccccc4)nc(NC(=O)c4ccccc4)c3c2)cc1)C(=O)OCC
inactive: [1] 12.2 µM | [2] 8.17 µM | [4] 40.4 µM | [5] > 100 µM | [17] 13.6 µM | [7] 26.6 µM | [8] 10.1 µM | [9] 9.86 µM | [10] 13.4 µM | [11] 8.18 µM | [12] 14.1 µM | [13] 7.28 µM | [18] 11.4 µM | [14] 3.4 µM | [15] 7.11 µM | [16] 13.5 µM

COc1cc(C2C(C(=O)O)=C(C)Oc3cc4c(cc32)OCO4)cc(OC)c1OC (stereo unspecified)
inactive: [1] 45 µM | [2] 45.2 µM | [3] 29.9 µM | [4] 23.9 µM | [5] 15.7 µM | [17] 41.3 µM | [7] 21.3 µM | [9] 54.2 µM | [11] 26.4 µM | [13] 23.1 µM | [18] 38.2 µM | [14] 14.6 µM | [15] 36.6 µM | [16] 39.6 µM

COc1ccccc1N1C(=O)/C(=C/c2ccc(N(CCC#N)CCC#N)cc2C)N=C1c1cc([N+](=O)[O-])ccc1Cl
inactive: [1] > 100 µM | [2] > 100 µM | [3] > 100 µM | [4] > 100 µM | [5] > 100 µM | [6] > 100 µM | [7] > 100 µM | [8] > 100 µM | [9] > 100 µM | [10] > 100 µM | [11] > 100 µM | [12] > 100 µM | [13] > 100 µM | [18] > 100 µM | [14] > 100 µM | [15] > 100 µM | [16] > 100 µM

CN(c1ccccc1)C(c1ccccc1)C(O)c1ccccc1 (stereo unspecified)
inactive: [1] 18.6 µM | [2] 22.6 µM | [3] 26.7 µM | [4] 16.3 µM | [5] 15.5 µM | [6] 17.9 µM | [17] 17 µM | [7] 12.8 µM | [9] 22.4 µM | [10] 20 µM | [11] 20.5 µM | [12] 16.7 µM | [13] 19.4 µM | [18] 17.1 µM | [14] 24.1 µM | [15] 17.9 µM | [16] 19.3 µM

COc1ccc(/C=C2/C(=O)N(C(=O)c3ccc(Cl)cc3)N=C2C)cc1OC
inactive: [1] > 100 µM | [2] > 100 µM | [3] > 100 µM | [4] > 100 µM | [5] > 100 µM | [6] > 100 µM | [17] > 100 µM | [9] > 100 µM | [10] > 100 µM | [11] > 100 µM | [12] > 100 µM | [13] > 100 µM | [18] > 100 µM | [15] > 100 µM | [16] > 100 µM

COc1ccccc1/C=N/N=C(\N)NO
inactive: [1] 4.76 µM | [2] 8.22 µM | [3] 16.7 µM | [4] 18.9 µM | [6] 12.7 µM | [17] 4.47 µM | [7] 12.6 µM | [8] 28.4 µM | [9] 45.2 µM | [10] 18.7 µM | [11] 21.3 µM | [12] 23.8 µM | [13] 2.77 µM | [18] 30.2 µM | [15] 48.3 µM | [16] 29.1 µM

Cc1ccc(S(=O)(=O)OC2CC=CC2)cc1
inactive: [1] > 100 µM | [2] > 100 µM | [3] > 100 µM | [4] > 100 µM | [5] > 100 µM | [6] > 100 µM | [17] > 100 µM | [7] > 100 µM | [8] > 100 µM | [11] > 100 µM | [12] > 100 µM | [13] > 100 µM | [18] > 100 µM | [14] > 100 µM | [15] > 100 µM | [16] > 100 µM

CCN(CC)CCN1C(=O)CC2[C@@H]3CCc4cc(OC)ccc4C3CC[C@]2(C)C1=O (stereo partly specified)
inactive: [2] 96.4 µM | [3] 18.8 µM | [4] 19.5 µM | [5] 16.8 µM | [6] 33.5 µM | [7] > 10 µM | [9] 91.2 µM | [10] 22.3 µM | [11] 17.9 µM | [12] 20.9 µM | [14] 33 µM | [15] 31.6 µM | [16] 14.9 µM
